Data published in paper PMC5291098, “Molecular mutagenesis of ppGpp: turning a RelA activator into an inhibitor” (Scientific Reports, 2017).
Entries after “also recorded” stand apart in the source; their conditions may differ.

Test system: T1, RelA binding to 70S initiation complexes
T1 construct: made in house
Test: Spin down assay of RelA binding to 70S initiation complexes
Design: species or system Escherichia coli
Conditions: 500 μM compound; 2 μM RelA, 1 μM 70S IC programmed with mRNA(MF), with or without tRNAPhe
Protocol: Figure 4 Functional studies of DR-M014 and DR-4250 with programmed ribosomal complexes. (a,b) Inhibition of RelA activated by starved ribosomal complexes containing deacylated A-site tRNA^Phe. The reaction mixture contained 30 nM RelA, 0.5 μM 70S, 2 μM tRNA^Phe, 2 μM tRNAi^Met, 2 μM mRNA(MF), 100 μM ppGpp, 0.3 mM [^3H] GDP and 1 mM ATP. The experiments were performed in HEPES:Polymix buffer with 5 mM Mg^2+. Error bars represent standard deviations of linear regression estimates, each experiment was performed at least three times. […] Reaction mixture containing combinations of 2 μM RelA, 1 μM 70S initiation complexes programmed with mRNA(MF), 3 μM deacylated tRNA^Phe and test compounds at 500 μM was preincubated at 37 °C for 15 minutes prior to loading 50 μl samples on top of a 50 μl 30% sucrose cushion. After centrifugation for 25 minutes (70,000 r.p.m. at 12 °C) the supernatants were quickly aspirated, the pellets resuspended in 20 μl of SDS loading buffer, and the proteins resolved on 10% SDS-PAGE gel.
The ppGpp-analogues reported earlier promote RelA association with 70S ribosome[25][26] and are, therefore, promising tools for generating stable 70S:RelA complexes for structural investigations. […]
3', 300 μM 3H-GDP, 100 μM ppGpp was pre-incubated at 37° C for 2 min and then reaction started by addition of 1 mM ATP, time points (5 μl) taken, quenched with formic acid and analyzed by TLC. […]

## Nc1nc2c(ncn2C2CCN(C(=O)P(=O)(O)O)CC2)c(=O)[nH]1 [DR-M014]
  Effect on RelA binding to 70S initiation complexes (in words): promote RelA binding to 70S initiation complexes; also recorded: significantly promotes RelA binding
